Here are results for four molecules from patent publication US5217969A, “Benzoxazine derivatives as inhibitors of leukotrienes” (Imperial Chemical Industries PLC, priority 1990, dated 1993).

In test [1] the target is T1, 5-LO (Homo sapiens, UniProt P09917).
T1 construct: heparinised human blood, prior to challenge with the calcium ionophore A23187; endogenous in cells; host or cells: heparinised human blood (endogenous enzyme of the blood cells)
T1 sequence (P09917 1-674): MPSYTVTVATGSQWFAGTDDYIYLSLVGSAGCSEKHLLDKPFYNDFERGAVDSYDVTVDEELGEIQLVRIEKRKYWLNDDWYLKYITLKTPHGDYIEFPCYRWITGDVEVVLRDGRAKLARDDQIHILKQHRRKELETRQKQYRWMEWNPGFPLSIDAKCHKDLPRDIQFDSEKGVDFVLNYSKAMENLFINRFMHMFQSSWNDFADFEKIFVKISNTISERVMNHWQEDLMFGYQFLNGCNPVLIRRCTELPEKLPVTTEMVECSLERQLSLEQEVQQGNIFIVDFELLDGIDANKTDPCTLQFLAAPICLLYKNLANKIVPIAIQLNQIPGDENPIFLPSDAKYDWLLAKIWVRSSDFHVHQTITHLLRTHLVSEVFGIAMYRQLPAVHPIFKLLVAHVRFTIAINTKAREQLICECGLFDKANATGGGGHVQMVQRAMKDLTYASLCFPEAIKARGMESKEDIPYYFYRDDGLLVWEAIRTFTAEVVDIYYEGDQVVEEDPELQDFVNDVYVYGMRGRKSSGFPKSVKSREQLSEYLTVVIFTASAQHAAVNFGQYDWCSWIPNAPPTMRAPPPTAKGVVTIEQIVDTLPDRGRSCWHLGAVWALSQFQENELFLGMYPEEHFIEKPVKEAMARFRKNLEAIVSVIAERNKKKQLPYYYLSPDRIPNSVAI
Nature of the test: test b) heparinised human blood challenged with A23187, LTB4 radioimmunoassay. The test is classed as cell-based. As for the experimental part:
b) An in vitro assay system involving incubating a test compound with heparinised human blood, prior to challenge with the calcium ionophore A23187 and then indirectly measuring the inhibitory effects on 5-LO by assaying the amount of LTB4 using the specific radioimmunoassays described by Carey and Forder (F. Carey and R. A. Forder, Prostaglandins, Leukotrienes Med., 1986, 22, 57; Prostaglandins, 1984, 28, 666; Brit. J. Pharmacol. 1985, 84, 34P) which involve the use of a protein-LTB4 conjugate produced using the procedure of Young et alia (Prostaglandins, 1983, 26(4), 605-613). The effects of a test compound on the enzyme cyclooxygenase (which is involved in the alternative metabolic pathway for arachidonic acid and gives rise to prostaglandins, thromboxanes and related metabolites) may be measured at the same time using the specific radioimmunoassay for thromboxane B2 (T×B2) described by Carey and Forder (see above). This test provides an indication of the effects of a test compound against 5-LO and also cyclooxygenase in the presence of blood cells and proteins. It permits the selectivity of the inhibitory effect on 5-LO or cyclooxygenase to be assessed.

In test [2] the target is T2, 5-LO (Rattus norvegicus, UniProt P12527).
T2 construct: liberation of LTB4 induced by zymosan within an air pouch generated within the subcutaneous tissue of the back of male rats; endogenous in cells; host or cells: living male rats; endogenous enzyme of cells in the zymosan-inflamed subcutaneous air pouch
T2 sequence (P12527 1-673): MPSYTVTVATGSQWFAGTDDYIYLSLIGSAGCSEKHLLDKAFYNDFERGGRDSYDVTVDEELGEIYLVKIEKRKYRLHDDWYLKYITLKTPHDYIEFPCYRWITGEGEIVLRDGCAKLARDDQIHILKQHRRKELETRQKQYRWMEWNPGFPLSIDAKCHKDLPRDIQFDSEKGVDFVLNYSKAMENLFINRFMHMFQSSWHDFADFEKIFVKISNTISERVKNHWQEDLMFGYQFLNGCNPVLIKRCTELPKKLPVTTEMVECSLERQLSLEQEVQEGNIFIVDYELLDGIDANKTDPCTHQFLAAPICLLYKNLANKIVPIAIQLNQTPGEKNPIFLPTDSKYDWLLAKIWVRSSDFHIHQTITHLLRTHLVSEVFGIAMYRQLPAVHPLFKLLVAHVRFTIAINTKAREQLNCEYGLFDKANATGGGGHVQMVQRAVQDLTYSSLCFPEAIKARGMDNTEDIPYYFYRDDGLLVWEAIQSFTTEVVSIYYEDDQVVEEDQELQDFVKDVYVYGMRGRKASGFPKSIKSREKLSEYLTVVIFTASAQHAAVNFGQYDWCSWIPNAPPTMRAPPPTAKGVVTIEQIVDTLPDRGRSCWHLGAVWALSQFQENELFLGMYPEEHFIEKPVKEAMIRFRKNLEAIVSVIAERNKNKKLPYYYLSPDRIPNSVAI
The test is described as follows: test g) liberation of LTB4 induced by zymosan within an air pouch of male rats. The class given is in vivo. The note with it: oral. Here is the method: g) An in vivo system involving measuring the effects of a test compound administered orally against the liberation of LTB4 induced by zymosan within an air pouch generated within the subcutaneous tissue of the back of male rats. The rats are anaesthetised and air pouches are formed by the injection of sterile air (20 ml). A further injection of air (10 ml) is similarly given after 3 days. At 6 days after the initial air injection the test compound is administered (usually orally as the suspension produced when a solution of the test compound in dimethylsulphoxide is added to hydroxypropylmethylcellulose), followed by the intrapouch injection of zymosan (1 ml of a 1% suspension in physiological saline). After 3 hours the rats are killed, the air pouches are lavaged with physiological saline, and the specific radioimmunoassay described above is used to assay LTB4 in the washings. This test provides an indication of inhibitory effects against 5-LO in an inflammatory milieu.

The molecule `COC1(c2cc(F)cc(Sc3ccc4c(c3)OCC(=O)N4C)c2)CCOCC1` [Example 5, 4-[5-fluoro-3-(4-methyl-3-oxo-2,3-dihydro-4H-1,4-benzoxazin-7-ylthio)phenyl]-4-methoxytetrahydropyran] gave an IC50 in test [1] of 0.05 µM. In addition, the ED50 in test [2] worked out at 0.15 mg/kg.
On to `COC1(c2cc(F)cc(OCc3ccc4c(c3)OCC(=O)N4C)c2)CCOCC1` [Example 1, 4-[5-fluoro-3-(4-methyl-3-oxo-2,3-dihydro-4H-1,4-benzoxazin-7-ylmethoxy)phenyl]-4-methoxytetrahydropyran], for which, in test [1], half-maximal inhibition (IC50) required 0.04 µM. In addition, in test [2], the median effective dose (ED50) turned out to be 0.4 mg/kg.
Consider `COC1(c2cc(F)cc(OCc3ccc4c(c3)OC(C)(C)C(=O)N4C)c2)CCOCC1` [Example 2, 4-[5-fluoro-3-(2,2,4-trimethyl-3-oxo-2,3-dihydro-4H-1,4-benzoxazin-7-ylmethoxy)phenyl]-4-methoxytetrahydropyran], for which, in test [1], the concentration for half-maximal inhibition (IC50) stood at 0.05 µM. Also, in test [2], the ED50 was determined as 1.5 mg/kg.
In test [1], `COC1(c2cc(F)cc(Sc3ccc4c(c3)OCC(=S)N4C)c2)CCOCC1` [Example 7, 4-[5-fluoro-3-(4-methyl-3-thioxo-2,3-dihydro-4H-1,4-benzoxazin-7-ylthio)phenyl]-4-methoxytetrahydropyran] came in with an IC50 of 0.3 µM. In addition, in test [2], the ED50 was found to be 1.5 mg/kg.
